{"source": "patent US20140088056A1", "about": "“CARDIAC GLYCOSIDES ARE POTENT INHIBITORS OF INTERFERON-BETA GENE EXPRESSION” (priority 2010, published 2014)", "key": {"293T cells [1]": {"test_system": "293T cells", "assay": "Western blot analysis of apoptosis and autophagy", "format": "cell-based, human", "conditions": "8 hours, bufalin 1 nM to 10 μM, staurosporine 4 μM; for induction of LC3B-II (marker of autophagy): BFA 100 nM", "experimental": "(§1) The cells were also exposed to 0.1% Triton X-100 for 1 hr before the viability assay as a control (FIG. 16E). Data represent mean values±s.d. (n=3). […] Cells were harvested and washed, then stained with Allophycocyanin (APC) conjugated Annexin V and 7-AAD for 15 minutes and subjected to flow cytometry analysis. The number in each graph is the percentile of Annexin V or 7-AAD positive populations. […] Total protein lysates were prepared and separated on SDS-PAGE for Western blot analysis of PARP1, cleaved PARP1, cleaved Caspase3, LC3B, ATP1a1, and beta-actin expression.\nApoptosis and autophagy were also analyzed by Western blots. […] Total protein lysates were prepared and separated on SDS-PAGE for Western blot analysis of PARP1, cleaved PARP1, cleaved Caspase3, LC3B, ATP1a1, and beta-actin expression."}, "IFNβ promoter": {"test_system": "IFNβ promoter", "assay": "cells", "format": "cell-based, human", "conditions": "for effect of ion-channel ligands on IFNβ reporter: increasing concentrations; for IC50: Homo sapiens, HEK-293T, read-out: IC50 for inhibition of virus induced IFNβ expression", "quoted_text": "293T cells were transfected with the IFNβ promoter driving a firefly luciferase reporter together a reference renilla luciferase reporter plasmid. […] Firefly luciferase activities were measured after another 24 hrs and normalized to that of renilla activities.\n293T cells were transfected with an IFNβ promoter driving luciferase reporter, 24 hrs later, increasing amounts (10 nM to 10 uM) of Ouabain (FIG. 8A) or digoxin (FIG. 8B) were added to cells before the Sendai virus infection. Luciferase activities were measured one day later.\nApproximately 40,000 293T cells were seeded in a 96 well plate, and co-transfected with IFNβ-110 firefly luciferase reporter and renilla luciferase plasmids (Fitzgerald, K. A. et al. IKKepsilon and TBK1 are essential components of the IRF3 signaling pathway. Nat Immunol 4, 491-6 (2003)). After 24 hrs, cells were treated with various chemicals at the indicated concentrations, and sendai virus infection was initiated one hour later. After another 24 hrs, cells were lysed and subjected to Dual-Glo luciferase assay analysis (Promega) with an Analyst AD plate reader.\nHuman 293T cells were transfected with the IFNβ promoter driving the expression of luciferase construct. The cells were treated with a library of chemical compounds, and sendai virus (SeV) infection initiated one hour later. Luciferase activity was measured after another 24 hrs of culture. Signals were normalized to the samples not treated with chemicals."}, "endogenous IFNβ gene": {"test_system": "endogenous IFNβ gene", "assay": "RT-PCR of virus induced endogenous IFNβ gene in 293T cells treated with ion-channel modulators", "format": "cell-based, human", "conditions": "10 uM, 6 hrs", "experimental": "293T cells were treated with 10 uM of nimodipine, diazoxide or phenamil 30 min before Sendai virus infection, 6 hrs later total RNA were extracted and the expression of various genes were analyzed by RT-PCR.\nSince the major function of the pump is to maintain the cellular ion homeostasis, the inventors reasoned that it might be possible to inhibit or stimulate IFNβ induction by varying the intracellular ion concentration. The inventors thus performed luciferase reporter assays with an ion-channel ligand library, which contains various modulators for sodium, potassium, calcium and chloride channels. The experiments were conducted similarly to the initial screening assays: 293T cells were transfected with reporter plasmid, then chemical ligands were added before starting virus infection, and luciferase activity measured after another 24 hrs."}, "TNF signaling": {"test_system": "TNF signaling", "conditions": "Yang et al.; blocks TRADD recruitment, inhibits IKBα degradation; cited from earlier work"}, "293T cells [2]": {"test_system": "293T cells", "assay": "Flow cytometry analysis of apoptosis (Annexin V / 7-AAD)", "format": "cell-based, human", "conditions": "bufalin 1 μM 8 hours; staurosporine 4 μM 4 hours", "experimental": "as §1\nTreated cells and untreated control cells were harvested and washed with PBS, and stained with APC conjugated Annexin V and 7-AAD (both from BD Biosciences) in Annexin V binding buffer (10 mM HEPES, pH 7.4, 140 mM NaCl, 2.5 mM CaCl2) for 15 minutes at room temperature, and then subjected to flow cytometry analysis on a FACSCalibur (BD Biosciences).\nCells were harvested and washed, then stained with Allophycocyanin (APC) conjugated Annexin V and 7-AAD for 15 minutes and subjected to flow cytometry analysis. […] 11 for sturosporine."}}, "note": "Like-named read-outs stand apart in the source and are kept apart here. Marks after values point to notes of the source that are not given here.", "data": [{"smiles": "CO/C1=C\\C(C)=C\\[C@@H](C)[C@@H](O)[C@@H](C)C/C(C)=C/C=C/[C@H](OC)[C@@H]([C@@H](C)[C@@H](O)[C@H](C)[C@@]2(O)C[C@@H](O)[C@H](C)[C@@H](C(C)C)O2)OC1=O", "note": "[BFA, bafilomycin A1]", "values": [{"measurement": "induction of LC3B-II (marker of autophagy)", "setting": "293T cells [1]", "result": "induced"}]}, {"smiles": "O=C(Nc1cccc(Nc2cc(Nc3cccc(C(F)(F)F)c3)ncn2)c1)C1CC1", "note": "[EGF receptor inhibitor]", "values": [{"measurement": "Inhibition % @ 10 μM of virus induced IFNβ expression", "setting": "IFNβ promoter; chemical library screen", "result": 38.5, "unit": "%"}]}, {"smiles": "CC#CC(=O)Nc1cc2c(Nc3ccc(F)c(Cl)c3)ncnc2cn1", "note": "[EGFR/ErbB-2/ErbB-4 Inhibitor]", "values": [{"measurement": "Inhibition % @ 10 μM of virus induced IFNβ expression", "setting": "IFNβ promoter; chemical library screen", "result": 20.6, "unit": "%"}]}, {"smiles": "Cn1c2ccccc2c2c3c(c4c5ccccc5n(CCC#N)c4c21)CNC3=O", "note": "[Go 6976]", "values": [{"measurement": "Inhibition % of virus induced IFNβ expression", "setting": "IFNβ promoter; tested at 3 μM, chemical library screen", "result": "55.9* %"}]}, {"smiles": "O=C(Nc1ccc([N+](=O)[O-])cc1O)Nc1ccccc1Br", "note": "[SB 225002]", "values": [{"measurement": "Inhibition % @ 10 μM of virus induced IFNβ expression", "setting": "IFNβ promoter; chemical library screen", "result": 50.8, "unit": "%"}]}, {"smiles": "CC1=NS(=O)(=O)c2cc(Cl)ccc2N1", "note": "[diazoxide, Diazoxide]", "values": [{"measurement": "effect of ion-channel ligands on IFNβ reporter", "setting": "IFNβ promoter", "result": "more inhibition"}, {"measurement": "virus induced expression of the endogenous IFNβ gene", "setting": "endogenous IFNβ gene", "result": "similarly inhibited"}]}, {"smiles": "C[C@H]1O[C@@H](O[C@H]2[C@@H](O)C[C@H](O[C@H]3[C@@H](O)C[C@H](O[C@H]4CC[C@@]5(C)[C@H](CC[C@@H]6[C@@H]5CC[C@]5(C)[C@@H](C7=CC(=O)OC7)CC[C@]65O)C4)O[C@@H]3C)O[C@@H]2C)C[C@H](O)[C@@H]1O", "note": "[digitoxin]", "values": [{"measurement": "TNF signaling", "setting": "TNF signaling", "result": "inhibit"}]}, {"smiles": "C[C@H]1O[C@@H](O[C@H]2[C@@H](O)C[C@H](O[C@H]3[C@@H](O)C[C@H](O[C@H]4CC[C@@]5(C)[C@H](CC[C@@H]6[C@@H]5C[C@@H](O)[C@]5(C)[C@@H](C7=CC(=O)OC7)CC[C@]65O)C4)O[C@@H]3C)O[C@@H]2C)C[C@H](O)[C@@H]1O", "note": "[digoxin]", "values": [{"measurement": "IC50", "setting": "IFNβ promoter", "result": 56.6, "unit": "nM"}]}, {"smiles": "C[C@@H]1O[C@@H](O[C@H]2C[C@@H](O)[C@]3(CO)[C@H]4[C@H](O)C[C@]5(C)[C@@H](C6=CC(=O)OC6)CC[C@]5(O)[C@@H]4CC[C@]3(O)C2)[C@H](O)[C@H](O)[C@H]1O", "note": "[ouabain]", "values": [{"measurement": "IC50", "setting": "IFNβ promoter; 293T cells, Sendai virus", "result": 64.8, "unit": "nM"}]}, {"smiles": "NC(=Nc1ccccc1)NC(=O)c1nc(Cl)c(N)nc1N", "note": "[phenamil]", "values": [{"measurement": "effect of ion-channel ligands on IFNβ reporter", "setting": "IFNβ promoter", "result": "consistently enhanced"}, {"measurement": "virus induced expression of the endogenous IFNβ gene", "setting": "endogenous IFNβ gene", "result": "less potent"}]}, {"smiles": "CN[C@@H]1C[C@H]2O[C@@](C)([C@@H]1OC)n1c3ccccc3c3c4c(c5c6ccccc6n2c5c31)C(=O)NC4", "note": "[staurosporine]", "values": [{"measurement": "cleavage products of PARP1 and Caspase3 (indication of apoptosis)", "setting": "293T cells [1]", "result": "induced"}, {"measurement": "induction of LC3B-II (marker of autophagy)", "setting": "293T cells [1]", "result": "induced"}, {"measurement": "Percentile of Annexin V or 7-AAD positive populations", "setting": "293T cells [2]", "result": 17.11}]}]}
